From patent US20240116946A1 (Gilead Sciences, Inc., priority 2022, published 2024)
Read-outs that look alike come from different tables or passages of the source.

What was measured:
[1] = molecular target: recombinant SARS-CoV-2 Main protease (Mpro) (Severe acute respiratory syndrome coronavirus 2 (2019-nCoV) (SARS-CoV-2), UniProt P0DTD1); assay: Cov Mpro Biochemical IC50 Assay; details: recombinant SARS-CoV-2 Mpro 7.5 nM, fluorogenic peptide substrate 40 μM; read-out: MPro IC50
SARS-CoV-2-NLuc = assay: microbe, parasite or virus in culture; format: cell-based, SARS Coronavirus 2
[2] = Severe acute respiratory syndrome coronavirus, 48 h, read-out: MPro EC50
[3] = Severe acute respiratory syndrome coronavirus, 48 h; read-out: MPro EC50

Structure (SMILES) | IC50 [1] | EC50 (SARS-CoV-2-NLuc; [2]) | EC50 (SARS-CoV-2-NLuc; [3]) | EC50 (SARS-CoV-2-NLuc; read-out: MPro EC50)
COc1ccc(Cl)c(-c2cc3[nH]c(=O)n(-c4cncc5cc(Cl)ccc45)c(=O)c3s2)c1 [Example 591] | 12.2 nM | 142 nM |  | 
O=c1[nH]c2cc(-c3ccccc3Cl)sc2c(=O)n1-c1cncc2c(Cl)cccc12 [Example 592] | > 50000 nM | 39500 nM |  | 
COc1ccc(Cl)c(-c2ccc3c(=O)n(-c4cncc5c(Cl)cccc45)c(=O)[nH]c3c2)c1 [Example 593] | 38400 nM | 5790 nM |  | 
COc1ccc(C#N)c(-c2cc3[nH]c(=O)n(-c4cncc5c(Cl)cccc45)c(=O)c3s2)c1 [Example 594] | 883 nM | 929 nM |  | 
COc1ccc(Cl)c(-c2cc3[nH]c(=O)n(-c4cncc5c(Cl)cccc45)c(=O)c3s2)c1 [Example 595] | 476 nM | 1180 nM |  | 
O=c1[nH]c2cc(-c3ccccc3Cl)sc2c(=O)n1-c1cncc2c1CCCO2 [Example 596] | 38.2 nM | 108 nM |  | 
COc1ccc(Cl)c(-c2ccc3c(=O)n(-c4cncc5c4CCCO5)c(=O)[nH]c3c2)c1 [Example 597] | 160 nM | 205 nM |  | 
COc1ccc(C#N)c(-c2cc3[nH]c(=O)n(-c4cncc5c4CCCO5)c(=O)c3s2)c1 [Example 598] | 29.6 nM | 150 nM |  | 
COc1ccc(Cl)c(-c2cc3[nH]c(=O)n(-c4cncc5c4CCCO5)c(=O)c3s2)c1 [Example 599] | 4.98 nM | 48.9 nM |  | 
O=c1[nH]c2cc(-c3ccccc3Cl)sc2c(=O)n1-c1cncc2cccc(Cl)c12 [Example 600] | 5.29 nM | 18.1 nM |  | 
COc1ccc(Cl)c(-c2cc3[nH]c(=O)n(-c4cncc5cccc(Cl)c45)c(=O)c3s2)c1 [Example 601] | < 2.54 nM | 14.7 nM |  | 
COc1ccc(C#N)c(-c2cc3[nH]c(=O)n(-c4cncc5ccc(N6CCn7c(nnc7C(F)(F)F)C6)cc45)c(=O)c3s2)c1 [Example 602] | 5.77 nM | 359 nM |  | 
COc1ccc(Cl)c(-c2cc3[nH]c(=O)n(-c4cncc5ccc(N6CCn7c(nnc7C(F)(F)F)C6)cc45)c(=O)c3s2)c1 [Example 603] | 2.75 nM | 14.6 nM |  | 
COc1ccc(Cl)c(-c2cc3[nH]c(=O)n(-c4cncc5ccc(N6CCn7nc(C(F)(F)F)nc7C6)cc45)c(=O)c3s2)c1 [Example 604] | 6.32 nM | 10.9 nM |  | 
COc1ccc(C#N)c(-c2cc3[nH]c(=O)n(-c4cncc5ccc(N6CCn7nc(C(F)(F)F)nc7C6)cc45)c(=O)c3s2)c1 [Example 605] | 10.1 nM | 91.2 nM |  | 
COc1ccc(Cl)c(-c2cc3[nH]c(=O)n(-c4cncc5ccc(N6CCn7nnc(C)c7C6)cc45)c(=O)c3s2)c1 [Example 606] | < 2.54 nM | 28.1 nM |  | 
COc1ccc(Cl)c(-c2cc3[nH]c(=O)n(-c4cncc5sccc45)c(=O)c3s2)c1 [Example 607] | 4.52 nM | 4.34 nM |  | 
COc1ccc(C#N)c(-c2cc3[nH]c(=O)n(-c4cncc5sccc45)c(=O)c3s2)c1 [Example 608] | < 2.54 nM | < 4.97 nM |  | 
COc1ccc(Cl)c(-c2cc3[nH]c(=O)n(-c4cncc5scc(C)c45)c(=O)c3s2)c1 [Example 609, 6-(2-chloro-5-methoxyphenyl)-3-(3-methylthieno[2,3-c]pyridin-4-yl)thieno[3,2-d]pyrimidine-2,4(1H,3H)-dione] | < 2.54 nM | < 3.39 nM |  | 
COc1ccc(Cl)c(-c2cc3[nH]c(=O)n(-c4cncc5ccc(N6CCn7cc(C(F)(F)F)nc7C6)cc45)c(=O)c3s2)c1 [Example 610] | < 2.54 nM | 13.9 nM |  | 
COc1cc(-c2cc3[nH]c(=O)n(-c4cncc5scc(C)c45)c(=O)c3s2)c(Cl)cc1F [Example 611, 6-(2-chloro-4-fluoro-5-methoxyphenyl)-3-(3-methylthieno[2,3-c]pyridin-4-yl)thieno[3,2-d]pyrimidine-2,4(1H,3H)-dione] | < 2.54 nM | 4.95 nM |  | 
COc1ccc(Cl)c(-c2cc3[nH]c(=O)n(-c4cncc(CC(=O)N5CCOCC5)c4)c(=O)c3s2)c1 [Example 612] | 12.2 nM | > 1000 nM |  | 

Structure (SMILES) | IC50 [1] | EC50 (SARS-CoV-2-NLuc; [2]) | EC50 (SARS-CoV-2-NLuc; [3]) | EC50 (SARS-CoV-2-NLuc; read-out: MPro EC50)
CNC(=O)CCn1c(=O)n(-c2cncc3ccccc23)c(=O)c2sc(-c3ccccc3Cl)cc21 [Example 613, 3-(6-(2-chlorophenyl)-3-(isoquinolin-4-yl)-2,4-dioxo-3,4-dihydrothieno[3,2-d]pyrimidin-1(2H)-yl)-N-methylpropanamide] | 68.6 nM |  | 91.9 nM | 
CC(=O)NCCn1c(=O)n(-c2cncc3ccccc23)c(=O)c2sc(-c3ccccc3Cl)cc21 [Example 614] | 35 nM |  |  | 64 nM
Cc1cc(-c2cccc(Cl)c2-c2cc3[nH]c(=O)n(-c4cncc(C5CC5)c4)c(=O)c3s2)cnn1 [Example 615, 6-(2-chloro-6-(6-methylpyridazin-4-yl)phenyl)-3-(5-cyclopropylpyridin-3-yl)thieno[3,2-d]pyrimidine-2,4(1H,3H)-dione] | 9.85 nM |  | 140 nM | 
O=c1[nH]c2cc(-c3c(Cl)cccc3-c3ccnnc3)sc2c(=O)n1-c1cncc(C2CC2)c1 [Example 616] | 6.92 nM | 320 nM |  | 
Cc1nn(C)cc1-c1cccc(Cl)c1-c1cc2[nH]c(=O)n(-c3cncc(C4CC4)c3)c(=O)c2s1 [Example 617] | 7.26 nM | 19.5 nM |  | 
Cc1cc(-c2cccc(Cl)c2-c2cc3[nH]c(=O)n(-c4cncc(C5CC5)c4)c(=O)c3s2)cn2ncnc12 [Example 618] | 6.56 nM | 16 nM |  | 
CNC(=O)CCn1c(=O)n(-c2cncc(C3CC3)c2)c(=O)c2sc(-c3ccccc3Cl)cc21 [Example 619, 3-(6-(2-chlorophenyl)-3-(5-cyclopropylpyridin-3-yl)-2,4-dioxo-3,4-dihydrothieno[3,2-d]pyrimidin-1(2H)-yl)-N-methylpropanamide] | 245 nM |  | 451 nM | 
CC(=O)NCCn1c(=O)n(-c2cncc(C3CC3)c2)c(=O)c2sc(-c3ccccc3Cl)cc21 [Example 620] | 281 nM | 759 nM |  | 
Cn1cnc(Cn2c(=O)n(-c3cncc(C4CC4)c3)c(=O)c3sc(-c4ccccc4Cl)cc32)n1 [Example 621] | 495 nM | 710 nM |  | 
O=c1[nH]c2cc(-c3ccccc3Cl)sc2c(=O)n1-c1cncc2ccc(F)cc12 [Example 622, 6-(2-chlorophenyl)-3-(6-fluoroisoquinolin-4-yl)thieno[3,2-d]pyrimidine-2,4(1H,3H)-dione] | 15.4 nM |  | 39.3 nM | 
COc1ccc(Cl)c(-c2cc3[nH]c(=O)n(-c4cncc5ccc(F)cc45)c(=O)c3s2)c1 [Example 623, 6-(2-chloro-5-methoxy-phenyl)-3-(6-fluoro-4-isoquinolyl)-1H-thieno[3,2-d]pyrimidine-2,4-dione] | 11.5 nM |  | 30 nM | 
COc1ccc(Cl)c(-c2cc3[nH]c(=O)n(-c4cncc5cc(OC)ccc45)c(=O)c3s2)c1 [Example 624, 6-(2-chloro-5-methoxyphenyl)-3-(7-methoxyisoquinolin-4-yl)thieno[3,2-d]pyrimidine-2,4(1H,3H)-dione] | 88.7 nM |  | 386 nM | 
COc1ccc(Cl)c(-c2cc3[nH]c(=O)n(-c4cncc5ccc(OC)cc45)c(=O)c3s2)c1 [Example 625] | 6.91 nM | 18.1 nM |  | 
COc1ccc(C#N)c(-c2cc3[nH]c(=O)n(-c4cncc5ccc(OC)cc45)c(=O)c3s2)c1 [Example 626] | 7.68 nM | 32.2 nM |  | 
COc1ccc(Cl)c(-c2cc3[nH]c(=O)n(-c4cncc5c(OC)cccc45)c(=O)c3s2)c1 [Example 627] | 1970 nM | 4770 nM |  | 
COc1cc(-c2cc3c(s2)c(=O)n(-c2cncc4ccccc24)c(=O)n3CC#N)c(Cl)cc1F [Example 630, 2-[6-(2-chloro-4-fluoro-5-methoxy-phenyl)-3-(4-isoquinolyl)-2,4-dioxo-thieno[3,2-d]pyrimidin-1-yl]acetonitrile] | 6.31 nM |  | 9.35 nM | 
COc1cc(-c2cc3c(s2)c(=O)n(-c2cncc4ccccc24)c(=O)n3CC2(C#N)CC2)c(Cl)cc1F [Example 631, 1-[[6-(2-chloro-4-fluoro-5-methoxy-phenyl)-3-(4-isoquinolyl)-2,4-dioxo-thieno[3,2-d]pyrimidin-1-yl]methyl]cyclopropanecarbonitrile] | 12.6 nM |  | 4.96 nM | 
COc1cc(-c2cc3c(s2)c(=O)n(-c2cncc4ccccc24)c(=O)n3CCC#N)c(Cl)cc1F [Example 632, 3-(6-(2-chloro-4-fluoro-5-methoxyphenyl)-3-(isoquinolin-4-yl)-2,4-dioxo-3,4-dihydrothieno[3,2-d]pyrimidin-1(2H)-yl)propanenitrile] | 6.13 nM |  | 3.11 nM | 
COc1cc(-c2cc3c(s2)c(=O)n(-c2cncc4cnn(C)c24)c(=O)n3CC#N)c(Cl)cc1F [Example 641, 2-[6-(2-chloro-4-fluoro-5-methoxy-phenyl)-3-(1-methylpyrazolo[4,3-c]pyridin-7-yl)-2,4-dioxo-thieno[3,2-d]pyrimidin-1-yl]acetonitrile] | 2.2 nM |  | < 4.42 nM | 
COc1cc(-c2cc3c(s2)c(=O)n(-c2cncc4cnn(C)c24)c(=O)n3CCC#N)c(Cl)cc1F [Example 642, 3-[6-(2-chloro-4-fluoro-5-methoxy-phenyl)-3-(1-methylpyrazolo[4,3-c]pyridin-7-yl)-2,4-dioxo-thieno[3,2-d]pyrimidin-1-yl]propanenitrile] | 8.54 nM |  | 4.59 nM | 
COc1cc(-c2cc3c(s2)c(=O)n(-c2cncc4cnn(C)c24)c(=O)n3CC2(C#N)CC2)c(Cl)cc1F [Example 643, 1-[[6-(2-chloro-4-fluoro-5-methoxy-phenyl)-3-(1-methylpyrazolo[4,3-c]pyridin-7-yl)-2,4-dioxo-thieno[3,2-d]pyrimidin-1-yl]methyl]cyclopropanecarbonitrile] | < 4.05 nM |  | 1.14 nM | 
N#Cc1cc(-c2cc3[nH]c(=O)n(-c4cncc5ccccc45)c(=O)c3s2)c(Cl)cc1F [Example 646] | 1900 nM | 11800 nM |  | 
